This assay concerns the target T1, CviR (LuxR homologue) (Chromobacterium violaceum, UniProt D3W065).
T1 construct: CviR ORF in pET28a, SUMO + His-tag fusion, E. coli BL21 (DE3), Ni-Sepharose, eluted by ULP proteinase digestion; RED-NHS labelled
The experiment in a line: microscale thermophoresis (RED-NHS labelled CviR). The format is binding. In general terms: MST reads how a fluorescent partner responds to local heating, with and without ligand.

Where [1] appears, read: 50 mM Tris-HCl, 150 mM NaCl, 10 mM MgCl2, 0.05% Tween-20, labelled protein, stated 20 μM CviR.

Read-outs that look alike come from different tables or passages of the source.

T1 sequence (D3W065 1-265): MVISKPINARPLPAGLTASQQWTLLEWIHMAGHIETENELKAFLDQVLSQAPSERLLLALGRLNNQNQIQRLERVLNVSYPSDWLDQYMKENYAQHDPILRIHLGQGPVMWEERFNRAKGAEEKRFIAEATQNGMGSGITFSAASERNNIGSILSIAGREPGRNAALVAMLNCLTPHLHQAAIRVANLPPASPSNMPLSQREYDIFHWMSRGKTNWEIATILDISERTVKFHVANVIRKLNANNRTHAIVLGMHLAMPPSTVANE

The term Kd denotes a measure of binding affinity in units of concentration. A lower Kd goes with higher affinity. With `O=C(/C=C/c1ccc(O)c(O)c1)c1ccc(O)cc1O` [BN1, Butein], the Kd result under setting [1] was “MST results suggested that all the QSIs except C7X have significant binding ability”.
On to `CC(C)=CCc1cc2c(cc1O)O[C@H](c1ccc(O)cc1)CC2=O` [BN2, Bavachin], for which the dissociation constant Kd stood at 45.1 ± 1.9 nM.
As to `Oc1ccc2c(c1)OC[C@](O)(Cc1ccc(O)c(O)c1)[C@H]2O` [SPL, Sappanol], under setting [1], the Kd result is on record as “MST results suggested that all the QSIs except C7X have significant binding ability”.
